{"source": "patent US9511074B2", "about": "“Methods of treating disorders associated with protein polymerization” (UNIVERSITY OF PITTSBURGH—OF THE COMMONWEALTH SYSTEM OF …, priority 2009, dated 2016)", "key": {"[1]": {"tested_on": "PiZ×IKKbDhep mouse", "test": "Hepatic hydroxyproline in PiZ×IKKbDhep mouse model", "type": "in vivo", "conditions": "FIG. 7", "description": "Transgenic Mice PiZ mice that have been bred into the C57/BL6 background have been described previously (1). For the second and third series of experiments with CBZ we used PiZ mice that were re-derived onto the FVB/N background for a move into a new animal facility. The transgene that was used to generate the PiZ mouse is a genomic fragment of DNA that contains the coding regions of the ATZ gene together with introns and ˜2 kilobases of upstream and downstream flanking regions (10). […] In this perspective it is not an exact phenocopy of the classical form of AT deficiency. In particular it cannot be a model for the loss-of-function mechanisms associated with the classical form of AT deficiency. […]\nHistology Sections of liver tissue were stained with hematoxylin and eosin, PAS, PAS after diastase treatment, TUNEL, PCNA, Ki67 and Sirius Red using standard techniques (18). […] The number of inflammatory nodules, AT-containing globules and autophagosomes were each quantified blindly by counting cells in 6 microscopic fields of 10 different sections for each liver. The number of nuclei, as determined by Hoechst staining, was used to exclude the possibility that different numbers of cells were counted in liver sections from mice treated with CBZ as compared to controls. Hepatic hydroxyproline concentration was determined by a well-established protocol (20,21)."}, "[2]": {"tested_on": "human AT", "test": "Serum levels of human ATZ in PiZ mice by ELISA", "type": "in vivo, mouse", "conditions": "CBZ 250 mg/kg/day for 2 weeks", "procedure": "For ELISA on mouse serum specimens, Nunc Maxisorp plates were first coated with goat anti-human AT (Bethyl), then blocked in PBS-Tween20 containing 5% nonfat milk. Serum samples were loaded into the wells in 1:20,000 dilution using purified human AT serial dilutions (1.56 to 100 ng/ml) as a standard. Rabbit-anti human AT (Dako) was used as […], and goat anti-rabbit IgG-HRP (Dako) a secondary antibody. Protein levels were detected with OPD (Sigma)."}, "[3]": {"tested_on": "BiP in the HTO/Z cell line", "test": "Steady state levels of BiP in the HTO/Z cell line (immunoblot)", "type": "cell-based, human", "conditions": "FIG. 1D", "description": "Cell Lines The human epidermal HeLa cell line with doxycycline-regulated expression of ATZ (HTO/Z) has been described previously (1). HTO/M and HTO/Saar are HeLa cell lines with doxycycline-regulated expression of wild type AT and the AT Saar variant, respectively (1). A murine embryonic fibroblast cell line (MEF) with targeted disruption of Atg5 (2) was engineered for stable expression of ATZ using the previously described pRc/RSV-ATZ expression plasmid (3). A wild type MEF cell line was also engineered for stable expression of ATZ in the same way to serve as control. For experiments with CBZ, the inducible cell lines were cultured in the absence of doxycycline for at least 4 weeks for maximal expression of AT. The cells were then subcultured into separate monolayers in fresh complete growth medium and incubated for 48 hours in the absence or presence of CBZ or rapamycin (RAP). CBZ or RAP were added to the growth medium. The duration of incubation with CBZ was determined to be optimal at 48 hours based on experiments in which the duration was varied from 12 to 72 hours. Doses of CBZ were based on previous studies of its effects in cell lines (5,6). […]\nFor immunoblot analysis to detect AT, GAPDH or LC3, cells were lysed in 50 mM Tris-HCl, 150 mM NaCl, 1% NP-40, pH 8.0. Protein levels were quantified using the BCA protein assay (Pierce Biotechnology, Rockford, Ill.). […]"}, "[4]": {"tested_on": "ATZ in the HTO/Z cell line", "test": "Steady state levels of ATZ in the HTO/Z cell line (immunoblot of insoluble and soluble fractions)", "type": "cell-based, human", "conditions": "HTO/Z cells", "description": "Cell Lines The human epidermal HeLa cell line with doxycycline-regulated expression of ATZ (HTO/Z) has been described previously (1). HTO/M and HTO/Saar are HeLa cell lines with doxycycline-regulated expression of wild type AT and the AT Saar variant, respectively (1). A murine embryonic fibroblast cell line (MEF) with targeted disruption of Atg5 (2) was engineered for stable expression of ATZ using the previously described pRc/RSV-ATZ expression plasmid (3). A wild type MEF cell line was also engineered for stable expression of ATZ in the same way to serve as control. For experiments with CBZ, the inducible cell lines were cultured in the absence of doxycycline for at least 4 weeks for maximal expression of AT. The cells were then subcultured into separate monolayers in fresh complete growth medium and incubated for 48 hours in the absence or presence of CBZ or rapamycin (RAP). CBZ or RAP were added to the growth medium. The duration of incubation with CBZ was determined to be optimal at 48 hours based on experiments in which the duration was varied from 12 to 72 hours. Doses of CBZ were based on previous studies of its effects in cell lines (5,6). Doses of RAP were based on previous positive effects on autophagic disposal of polyglutamine-repeat proteins (7). After the incubation cells were homogenized and cell homogenates separated into insoluble and soluble fractions according to our previously established technique (8). Samples of 20 μgs each were subjected to immunoblot analysis for AT, BiP and GAPDH.\nFor immunoblot analysis to detect AT, GAPDH or LC3, cells were lysed in 50 mM Tris-HCl, 150 mM NaCl, 1% NP-40, pH 8.0. Protein levels were quantified using the BCA protein assay (Pierce Biotechnology, Rockford, Ill.). 10-50 μg samples were loaded onto 7.5% precast gels. PVDF membranes were blocked in TBS, 0.5% Tween 20 (TBST), 5% milk and then incubated with primary antibody in 5% milk TBST solution. Horseradish peroxidase anti-goat Ig or anti-mouse Ig (Jackson Labs, Bar Harbor, Me.) were used as secondary antibodies in TBST. Blots were visualized with Super Signal West Dura or West Femto from Pierce."}, "[5]": {"tested_on": "APP-PS1 mouse", "test": "Plaque load and Aβ ELISA in APP-PS1 mouse model of AD", "type": "in vivo", "conditions": "APP-PS1 mice, 200 mg/kg/day gavage, 5 doses per wk, 3 wks", "description": "The APP-PS1 mouse model of AD is associated with accelerated amyloid deposition with plaques resembling AD in humans starting to appear at 12 weeks of age (12) and progressive behavioral changes starting at 6 months of age (55, 56). Only a limited number of mice were available at the ideal age, 9 wks, at the time of the study, so the pilot study was very small. 9-12 wks of age was selected as the ideal age because it represents the age with the earliest consistent appearance of AP deposition in APP-PS1 mice. Mice were treated by orogastric gavage with CBZ 200 mg/kg/day, 5 doses per wk, for 3 wks; n=2 for CBZ and n=4 for vehicle (DMSO). Brain sections were stained with X-34, antibodies to Aβ1-40 and Aβ1-42 to determine plaque load using techniques as described previously (57)."}, "[6]": {"conditions": "48 hours incubation, immunoblot"}}}
{"molecule": "NC(=O)N1c2ccccc2C=Cc2ccccc21", "note": "[CBZ, 5H-dibenz [b,f]azepine-5-carboxamide]", "values": [{"measurement": "hepatic hydroxyproline concentration", "setting": "[1]", "result": "decrease"}, {"measurement": "serum concentrations of human AT", "setting": "[2]", "result": "not significantly affected"}, {"measurement": "BiP levels", "setting": "[3]", "result": "did not affect"}, {"measurement": "minimal effective dose on ATZ levels", "setting": "[4]", "result": 3, "unit": "µM"}, {"measurement": "steady-state levels of ATZ, insoluble fraction", "setting": "[4]; [6]", "result": "marked decrease"}, {"measurement": "steady-state levels of ATZ, soluble fraction", "setting": "[4]; [6]", "result": "marked decrease"}, {"measurement": "soluble and insoluble Aβ1-40 and Aβ1-42 by ELISA", "setting": "[5]", "result": "trend toward lower values"}, {"measurement": "plaque load (X-34, anti-Aβ1-40, anti-Aβ1-42 staining)", "setting": "[5]; n=2", "result": "marked reduction"}]}
